Reference: ChEMBL document CHEMBL4145491, “Bysspectin A, an unusual octaketide dimer and the precursor derivatives from the endophytic fungus Byssochlamys spectabilis IMM0002 and their biological activities” (Eur J Med Chem, 2018)
Values after ≈ are worked out from the molar mass of the structure shown. Active and inactive are the calls of the source. No cut-off for these calls is given here.

How the values were obtained:
Liver carboxylesterase 1 = target: T1, Liver carboxylesterase 1 (Homo sapiens, UniProt P23141); test: Inhibition of CE1 in human liver microsomes using D-Luciferin methyl ester as substrate preincubated for 10 mins followed by substrate addition measured after 10 mins by luminescence assay
T1 sequence (P23141 whole entry): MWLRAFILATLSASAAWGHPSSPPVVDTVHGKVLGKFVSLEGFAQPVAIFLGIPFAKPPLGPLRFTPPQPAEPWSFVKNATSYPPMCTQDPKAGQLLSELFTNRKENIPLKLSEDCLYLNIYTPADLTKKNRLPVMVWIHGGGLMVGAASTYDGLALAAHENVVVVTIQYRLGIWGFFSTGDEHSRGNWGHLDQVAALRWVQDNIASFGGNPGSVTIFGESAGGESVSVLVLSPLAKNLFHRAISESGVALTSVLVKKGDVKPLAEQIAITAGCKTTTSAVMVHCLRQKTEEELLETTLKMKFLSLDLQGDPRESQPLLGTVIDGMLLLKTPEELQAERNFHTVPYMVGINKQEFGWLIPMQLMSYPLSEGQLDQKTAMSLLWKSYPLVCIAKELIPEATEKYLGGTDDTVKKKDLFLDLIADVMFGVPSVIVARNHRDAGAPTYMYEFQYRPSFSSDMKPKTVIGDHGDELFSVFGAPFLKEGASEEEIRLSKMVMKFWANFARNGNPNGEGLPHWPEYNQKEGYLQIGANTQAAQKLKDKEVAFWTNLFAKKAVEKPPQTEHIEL

Cocaine esterase [1] = target: T2, Cocaine esterase (Homo sapiens, UniProt O00748); test: Inhibition of CE2 in human liver microsomes using fluorescein diacetate as substrate preincubated for 10 mins followed by substrate addition measured after 20 mins by […] assay
T2 sequence (O00748 whole entry): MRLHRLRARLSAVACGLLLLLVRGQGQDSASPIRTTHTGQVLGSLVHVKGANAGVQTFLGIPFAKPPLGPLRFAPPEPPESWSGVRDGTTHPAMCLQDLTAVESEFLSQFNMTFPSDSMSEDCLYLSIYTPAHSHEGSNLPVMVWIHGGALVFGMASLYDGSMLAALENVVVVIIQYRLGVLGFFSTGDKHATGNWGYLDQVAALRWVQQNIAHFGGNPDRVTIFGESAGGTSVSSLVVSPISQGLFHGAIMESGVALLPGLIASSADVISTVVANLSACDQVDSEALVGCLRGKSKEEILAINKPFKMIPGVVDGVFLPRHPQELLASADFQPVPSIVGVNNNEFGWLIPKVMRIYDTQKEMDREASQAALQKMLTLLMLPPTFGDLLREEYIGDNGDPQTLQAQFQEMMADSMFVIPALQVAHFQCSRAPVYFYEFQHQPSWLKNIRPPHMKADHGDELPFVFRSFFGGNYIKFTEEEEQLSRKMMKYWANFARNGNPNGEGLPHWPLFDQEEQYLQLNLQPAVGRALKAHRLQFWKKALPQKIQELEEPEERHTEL

Homo sapiens = organism: Homo sapiens; test: Selectivity ratio of IC50 for inhibition of CE1 in human liver microsomes to IC50 for inhibition of CE2 in human liver microsomes
Peritoneal macrophage = test: Anti-inflammatory activity in C57BL6J mouse peritoneal macrophages assessed as inhibition of LPS-induced TNF-alpha secretion at 10 uM after 24 hrs; format: functional, cell-based
[2] = target: T3, Tyrosine-protein phosphatase non-receptor type 1 (Homo sapiens) (UniProt P18031); test: Inhibition of recombinant human GST-tagged PTP1B at 10 uM using p-NPP as substrate after 10 mins by spectrophotometric method
T3 sequence (whole entry): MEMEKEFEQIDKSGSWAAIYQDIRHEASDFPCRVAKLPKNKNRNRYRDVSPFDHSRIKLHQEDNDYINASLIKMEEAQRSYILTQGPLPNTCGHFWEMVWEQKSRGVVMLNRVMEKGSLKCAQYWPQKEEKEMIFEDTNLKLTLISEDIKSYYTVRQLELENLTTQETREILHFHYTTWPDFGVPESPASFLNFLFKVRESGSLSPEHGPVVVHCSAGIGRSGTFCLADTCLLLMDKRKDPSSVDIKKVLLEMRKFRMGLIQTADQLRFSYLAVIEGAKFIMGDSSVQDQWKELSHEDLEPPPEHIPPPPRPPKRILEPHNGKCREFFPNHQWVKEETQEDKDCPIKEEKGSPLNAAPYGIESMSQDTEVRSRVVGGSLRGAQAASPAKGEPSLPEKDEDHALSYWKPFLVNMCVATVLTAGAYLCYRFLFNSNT

HepG2 = test: Protection against acetaminophen-induced cell injury in human HepG2 cells at 10 uM after 24 hrs by MTT assay; format: functional, cell-based
HCT-8 = test: Cytotoxicity against human HCT8 cells after 24 hrs by MTT assay; format: functional, cell-based
A2780 = test: Cytotoxicity against human A2780 cells after 24 hrs by MTT assay; format: functional, cell-based
BGC-823 = test: Cytotoxicity against human BGC823 cells after 24 hrs by MTT assay; format: functional, cell-based
Bel-7402 = test: Cytotoxicity against human Bel7402 cells after 24 hrs by MTT assay; format: functional, cell-based
A549 = test: Cytotoxicity against human A549 cells after 24 hrs by MTT assay; format: functional, cell-based
Escherichia coli [3] = test: Antibacterial activity against Escherichia coli ATCC 25922 at 30 ug/disk; format: functional
Staphylococcus aureus [4] = test: Antibacterial activity against Staphylococcus aureus ATCC 25923 at 30 ug/disk; format: functional
Candida albicans = test: Anti-fungal activity against Candida albicans at 30 ug/disk; format: functional
Escherichia coli [5] = test: Antibacterial activity against Escherichia coli ATCC 25922 after 24 hrs by broth microdilution method; format: functional; settings: ATCC 25922, 24 h
Staphylococcus aureus [6] = test: Antibacterial activity against Staphylococcus aureus ATCC 25923 after 24 hrs by broth microdilution method; format: functional; settings: ATCC 25923, 24 h
[7] = test system: Staphylococcus epidermidis; test: Antibacterial activity against Staphylococcus epidermidis ATCC 12228 after 24 hrs by broth microdilution method; format: functional; settings: ATCC 12228, 24 h
[8] = test system: Mycolicibacterium smegmatis; test: Antibacterial activity against Mycobacterium smegmatis MC2 155 ATCC […] after 24 hrs by broth microdilution method; format: functional
[9] = target: T4, CE2 (carboxylesterase 2; cocaine esterase) (Homo sapiens, UniProt O00748); test: Potency index, ratio of loperamide IC50 to compound IC50 for inhibition of CE2 in human liver microsomes; settings: read-out: Ratio IC50
T4 sequence (O00748 whole entry): T2 sequence (O00748 whole entry)

Cocaine esterase [10] = target: T2, Cocaine esterase; test: Reversible inhibition of CE2 in human liver microsomes up to 120 uM using fluorescein diacetate as substrate preincubated for 10 mins followed by substrate addition measured after 20 mins by […] assay
Cocaine esterase [11] = target: T2, Cocaine esterase; test: Competitive inhibition of CE2 in human liver microsomes using fluorescein diacetate as substrate preincubated for 10 mins followed by substrate addition measured after 20 mins by Lineweaver-Burk plot analysis

Structure (SMILES)	IC50 (Liver carboxylesterase 1)	inhibition (Peritoneal macrophage)	inhibition [2]	Activity (HepG2)	Activity (HCT-8)	Activity (A2780)	Activity (BGC-823)	Activity (Bel-7402)	Activity (A549)	MIC (Escherichia coli [5])	MIC (Staphylococcus aureus [6])	other results
CCCCCCCC[C@@H]1OC(=O)c2c(O)cccc21 [PAECILOCIN A]	> 100000 nM	inactive	inactive	inactive	inactive	inactive	inactive	inactive	inactive	–	–	IC50 (Cocaine esterase [1]): 23300 nM; Ratio IC50 (Homo sapiens): > 4.29
CC1(C)S[C@@H]2[C@H](NC(=O)[C@H](N)c3ccccc3)C(=O)N2[C@H]1C(=O)O [AMPICILLIN]	–	–	–	–	–	–	–	–	–	–	–	zone of inhibition at 30 µg/disc (Escherichia coli [3]; read-out: DIZ): 16 to 20 mm; zone of inhibition at 30 µg/disc (Staphylococcus aureus [4]; read-out: DIZ): > 20 mm; diameter of the inhibition zone (DIZ) (Candida albicans): inactive
O=[N+]([O-])c1ccc(OP(=O)(O)Oc2ccc([N+](=O)[O-])cc2)cc1	210 nM	–	–	–	–	–	–	–	–	–	–	–
CCCCCCCCCc1cccc(O)c1C=O	–	inactive	inactive	inactive	inactive	inactive	inactive	inactive	inactive	32 µg/mL (≈ 129 µM)	64 µg/mL (≈ 258 µM)	–
CCCCCCCCC(=O)c1cccc(O)c1-c1cc2c(C(=O)CCCCCCCC)cccc2o1	> 100000 nM	inactive	inactive	inactive	inactive	inactive	inactive	inactive	inactive	> 128 µg/mL	> 128 µg/mL	MIC [7]: > 128 µg/mL; MIC [8]: > 128 µg/mL; IC50 (Cocaine esterase [1]): 2010 nM; Ratio IC50 (Homo sapiens): > 49.8; selectivity ratio [9]: 2; inhibition (INH) (Cocaine esterase [10]): Active; Ki (Cocaine esterase [11]): 2340 nM
C[C@H]1COc2c(N3CCN(C)CC3)c(F)cc3c(=O)c(C(=O)O)cn1c23.C[C@H]1COc2c(N3CCN(C)CC3)c(F)cc3c(=O)c(C(=O)O)cn1c23.O [LEVOFLOXACIN]	–	–	–	–	–	–	–	–	–	–	0.12 µg/mL	–
CCCCCCC/C=C1\OC(=O)c2c(O)cccc21	–	inactive	inactive	inactive	inactive	inactive	inactive	inactive	inactive	> 128 µg/mL	> 128 µg/mL	MIC [7]: > 128 µg/mL; MIC [8]: > 128 µg/mL
C[C@@H]1[C@H](O)[C@@H](C)/C=C/C=C/C=C/C=C/C=C/C=C/C=C/[C@H](O[C@@H]2O[C@H](C)[C@@H](O)[C@H](N)[C@@H]2O)C[C@@H]2O[C@](O)(C[C@@H](O)C[C@@H](O)[C@H](O)CC[C@@H](O)C[C@@H](O)CC(=O)O[C@H]1C)C[C@H](O)[C@H]2C(=O)O [AMPHOTERICIN B]	–	–	–	–	–	–	–	–	–	–	–	diameter of the inhibition zone (DIZ) (Escherichia coli [3]): inactive; diameter of the inhibition zone (DIZ) (Staphylococcus aureus [4]): inactive; zone of inhibition at 30 µg/disc (Candida albicans; read-out: DIZ): > 20 mm
